Experimental data reported in patent publication US20240327382A1 (ALMAC DISCOVERY LIMITED, priority 2021, published 2024).

target: T1, Full-length USP19 (Homo sapiens, UniProt O94966); assay: USP19 fluorescence polarisation (FP) assay, Ubiquitin-Lys-TAMRA substrate; assay type: biochemical; conditions: average of at least two duplicate experiments
T1 construct: Full-length USP19 was purchased from Boston Biochem (E-576); purchased Boston Biochem E-576
T1 sequence (O94966 1-1318): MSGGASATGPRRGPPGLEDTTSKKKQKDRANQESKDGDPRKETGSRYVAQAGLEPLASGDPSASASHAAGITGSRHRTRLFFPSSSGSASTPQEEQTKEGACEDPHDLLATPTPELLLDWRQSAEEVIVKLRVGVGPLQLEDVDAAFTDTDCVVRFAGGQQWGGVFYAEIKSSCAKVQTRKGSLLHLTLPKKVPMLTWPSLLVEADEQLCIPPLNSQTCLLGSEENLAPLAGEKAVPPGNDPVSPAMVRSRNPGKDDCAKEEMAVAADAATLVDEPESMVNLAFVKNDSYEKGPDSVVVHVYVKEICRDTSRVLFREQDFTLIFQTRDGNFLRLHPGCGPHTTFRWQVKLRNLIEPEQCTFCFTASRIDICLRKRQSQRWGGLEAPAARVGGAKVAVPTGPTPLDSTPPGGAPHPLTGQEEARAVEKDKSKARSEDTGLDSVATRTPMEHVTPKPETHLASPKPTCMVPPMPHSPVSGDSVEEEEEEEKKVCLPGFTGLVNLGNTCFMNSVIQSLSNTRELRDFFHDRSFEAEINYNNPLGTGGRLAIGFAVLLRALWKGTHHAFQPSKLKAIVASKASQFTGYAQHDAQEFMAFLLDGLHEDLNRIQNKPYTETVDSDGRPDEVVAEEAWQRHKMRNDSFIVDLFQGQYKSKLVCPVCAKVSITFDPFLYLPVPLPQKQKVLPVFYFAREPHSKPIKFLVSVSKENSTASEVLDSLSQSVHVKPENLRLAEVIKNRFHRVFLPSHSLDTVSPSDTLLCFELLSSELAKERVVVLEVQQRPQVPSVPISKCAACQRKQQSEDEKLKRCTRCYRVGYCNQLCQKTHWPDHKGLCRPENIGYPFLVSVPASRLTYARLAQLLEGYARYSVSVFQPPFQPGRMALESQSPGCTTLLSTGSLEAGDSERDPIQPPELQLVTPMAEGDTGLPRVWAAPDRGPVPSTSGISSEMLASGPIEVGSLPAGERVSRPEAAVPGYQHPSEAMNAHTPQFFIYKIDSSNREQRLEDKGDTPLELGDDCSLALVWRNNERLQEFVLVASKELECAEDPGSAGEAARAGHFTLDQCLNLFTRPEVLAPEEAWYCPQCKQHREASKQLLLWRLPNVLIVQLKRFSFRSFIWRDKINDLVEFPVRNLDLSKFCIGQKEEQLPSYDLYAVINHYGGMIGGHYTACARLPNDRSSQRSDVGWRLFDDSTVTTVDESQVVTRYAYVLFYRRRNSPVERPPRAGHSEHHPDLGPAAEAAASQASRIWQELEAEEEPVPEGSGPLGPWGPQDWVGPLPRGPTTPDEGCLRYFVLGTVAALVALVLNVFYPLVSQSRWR
Summary of the method: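 Full-length human USP19 (added at 2.5 nM) was preincubated 30 min at RT with inhibitor (serial dilutions 200 μM to 2 μM) in 50 mM HEPES pH 7.4, 150 mM NaCl, 5 mM DTT, 0.05% BSA, 0.05% CHAPS. Ubiquitin-Lys-TAMRA isopeptide substrate (added at 500 nM) started the reaction, and FP (Ex 530/Em 575 nm) was read every 15 min over 90 min. IC50 came from non-linear regression of signal normalised to no-compound control, averaged over at least two duplicate experiments.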

| SMILES | IC50 |
| --- | --- |
| CN[C@@H]1CCN(C(=O)N2CC[C@@H](Cn3cnc(-c4ccccc4C)cc3=O)C3(CCCC3)C2)[C@H](c2ccccc2)C1 [Example 84, 3-(((R)-7-((2S,4R)-4-(Methylamino)-2-phenylpiperidine-1-carbonyl)-7-azaspiro[4.5]decan-10-yl)methyl)-6-(o-tolyl)pyrimidin-4(3H)-one] | < 0.01 µM |
| N[C@@H]1CCN(C(=O)N2CC[C@@H](Cn3cnc(-c4ccccc4)cc3=O)C3(CCCC3)C2)[C@H](c2cc(F)ccc2F)C1 [Example 86, 3-(((R)-7-((2S,4R)-4-amino-2-(2,5-difluorophenyl)piperidine-1-carbonyl)-7-azaspiro[4.5]decan-10-yl)methyl)-6-phenylpyrimidin-4(3H)-one] | < 0.01 µM |
| N[C@@H]1CCN(C(=O)N2CC[C@@H](Cn3ccc(-c4ccccc4)cc3=O)C3(CCCC3)C2)[C@H](c2cc(F)ccc2F)C1 [Example 87, 1-(((R)-7-((2S,4R)-4-Amino-2-(2,5-difluorophenyl)piperidine-1-carbonyl)-7-azaspiro[4.5]decan-10-yl)methyl)-4-phenylpyridin-2(1H)-one] | < 0.01 µM |
| COc1ccccc1-c1ccn(C[C@@H]2CCN(C(=O)N3CC[C@@H](N)C[C@H]3c3cccc(F)c3)CC23CCCC3)c(=O)c1 [Example 88, 1-(((R)-7-((2S,4R)-4-Amino-2-(3-fluorophenyl)piperidine-1-carbonyl)-7-azaspiro[4.5]decan-10-yl)methyl)-4-(2-methoxyphenyl)pyridin-2(1H)-one] | < 0.01 µM |
| COc1ccccc1-c1ccn(C[C@@H]2CCN(C(=O)N3CC[C@@H](N)C[C@H]3c3cc(F)ccc3F)CC23CCCC3)c(=O)c1 [Example 89, 1-(((R)-7-((2S,4R)-4-Amino-2-(2,5-difluorophenyl)piperidine-1-carbonyl)-7-azaspiro[4.5]decan-10-yl)methyl)-4-(2-methoxyphenyl)pyridin-2(1H)-one] | < 0.01 µM |
| CN[C@H]1C[C@@H](c2ccccc2)N(C(=O)N2CC[C@@H](Cn3cnc(-c4ccccc4)cc3=O)C3(CCCC3)C2)C1 [Example 90, 3-(((R)-7-((2S,4S)-4-(Methylamino)-2-phenylpyrrolidine-1-carbonyl)-7-azaspiro[4.5]decan-10-yl)methyl)-6-phenylpyrimidin-4(3H)-one] | < 0.01 µM |
| CN[C@@H]1CCN(C(=O)N2CC[C@@H](Cn3ccc(-c4ccccc4)cc3=O)C3(CCCC3)C2)[C@H](c2cc(F)ccc2F)C1 [Example 91, 1-(((R)-7-((2S,4R)-2-(2,5-Difluorophenyl)-4-(methylamino)piperidine-1-carbonyl)-7-azaspiro[4.5]decan-10-yl)methyl)-4-phenylpyridin-2(1H)-one] | < 0.01 µM |
| COc1ccccc1-c1cc(=O)n(C[C@@H]2CCN(C(=O)N3CC[C@@H](N)C[C@H]3c3ccccc3)CC23CCCC3)cn1 [Example 92, 3-(((R)-7-((2S,4R)-4-Amino-2-phenylpiperidine-1-carbonyl)-7-azaspiro[4.5]decan-10-yl)methyl)-6-(2-methoxyphenyl)pyrimidin-4(3H)-one] | < 0.01 µM |
| CC(=O)N[C@@H]1CCN(C(=O)N2CC[C@@H](Cn3ccc(-c4ccccc4)cc3=O)C3(CCCC3)C2)[C@H](c2ccccc2)C1 [Example 93, N-((2S,4R)-1-((R)-10-((2-Oxo-4-phenylpyridin-1(2H)-yl)methyl)-7-azaspiro[4.5]decane-7-carbonyl)-2-phenylpiperidin-4-yl)acetamide] | 0.01 to 0.1 µM |
| CN[C@@H]1CCN(C(=O)N2CC[C@@H](Cn3cnc(-c4ccccc4)cc3=O)C3(CCCC3)C2)[C@H](c2ccc(F)cc2F)C1 [Example 94, 3-(((R)-7-((2S,4R)-2-(2,4-Difluorophenyl)-4-(methylamino)piperidine-1-carbonyl)-7-azaspiro[4.5]decan-10-yl)methyl)-6-phenylpyrimidin-4(3H)-one] | < 0.01 µM |
| CN[C@@H]1CCN(C(=O)N2CC[C@@H](Cn3ccc(-c4ccccc4)cc3=O)C3(CCCC3)C2)[C@H](c2ccc(F)cc2F)C1 [Example 95, 1-(((R)-7-((2S,4R)-2-(2,4-Difluorophenyl)-4-(methylamino)piperidine-1-carbonyl)-7-azaspiro[4.5]decan-10-yl)methyl)-4-phenylpyridin-2(1H)-one] | < 0.01 µM |
| O=C(N[C@@H]1CCN(C(=O)N2CC[C@@H](Cn3ccc(-c4ccccc4)cc3=O)C3(CCCC3)C2)[C@H](c2ccccc2)C1)C1CC1 [Example 96, N-((2S,4R)-1-((R)-10-((2-Oxo-4-phenylpyridin-1(2H)-yl)methyl)-7-azaspiro[4.5]decane-7-carbonyl)-2-phenylpiperidin-4-yl)cyclopropanecarboxamide] | 0.01 to 0.1 µM |

Further lines, results first:

| IC50 | SMILES |
| --- | --- |
| < 0.01 µM | CN[C@@H]1CCN(C(=O)N2CC[C@@H](Cn3cnc(-c4ccccc4OC)cc3=O)C3(CCCC3)C2)[C@H](c2ccccc2)C1 [Example 97, 6-(2-Methoxyphenyl)-3-(((R)-7-((2S,4R)-4-(methylamino)-2-phenylpiperidine-1-carbonyl)-7-azaspiro[4.5]decan-10-yl)methyl)pyrimidin-4(3H)-one] |
| < 0.01 µM | CN[C@@H]1CCN(C(=O)N2CCC(Cn3ccc(-c4ccccc4)cc3=O)CC2)[C@H](c2cc(F)ccc2F)C1 [Example 98, 1-((1-((2S,4R)-2-(2,5-Difluorophenyl)-4-(methylamino)piperidine-1-carbonyl)piperidin-4-yl)methyl)-4-phenylpyridin-2(1H)-one] |
| < 0.01 µM | CN[C@@H]1CCN(C(=O)N2CC[C@@H](Cn3cnc(-c4ccccc4OC)cc3=O)C3(CCCC3)C2)[C@H](c2cc(F)ccc2F)C1 [Example 99, 3-(((R)-7-((2S,4R)-2-(2,5-Difluorophenyl)-4-(methylamino)piperidine-1-carbonyl)-7-azaspiro[4.5]decan-10-yl)methyl)-6-(2-methoxyphenyl)pyrimidin-4(3H)-one] |
| < 0.01 µM | N[C@@H]1CCN(C(=O)N2CC[C@@H](Cn3cnc4ccc(F)cc4c3=O)C3(CCCC3)C2)[C@H](c2ccccc2)C1 [Example 100, 3-(((R)-7-((2S,4R)-4-Amino-2-phenylpiperidine-1-carbonyl)-7-azaspiro[4.5]decan-10-yl)methyl)-6-fluoroquinazolin-4(3H)-one] |
| < 0.01 µM | CN[C@@H]1CCN(C(=O)N2CC[C@@H](Cn3cnc4ccc(F)cc4c3=O)C3(CCCC3)C2)[C@H](c2ccccc2)C1 [Example 101, 6-Fluoro-3-(((R)-7-((2S,4R)-4-(methylamino)-2-phenylpiperidine-1-carbonyl)-7-azaspiro[4.5]decan-10-yl)methyl)quinazolin-4(3H)-one] |
| < 0.01 µM | CN[C@@H]1CCN(C(=O)N2CC[C@@H](Cn3cnc(-c4ccccc4OC)cc3=O)C3(CCCC3)C2)[C@H](c2cccc(F)c2)C1 [Example 102, 3-(((R)-7-((2S,4R)-2-(3-Fluorophenyl)-4-(methylamino)piperidine-1-carbonyl)-7-azaspiro[4.5]decan-10-yl)methyl)-6-(2-methoxyphenyl)pyrimidin-4(3H)-one] |
| < 0.01 µM | CN[C@@H]1CCN(C(=O)N2CC[C@@H](Cn3cnc(-c4ccccc4OC)cc3=O)C3(CCCC3)C2)[C@H](c2ccccc2F)C1 [Example 103, 3-(((R)-7-((2S,4R)-2-(2-Fluorophenyl)-4-(methylamino)piperidine-1-carbonyl)-7-azaspiro[4.5]decan-10-yl)methyl)-6-(2-methoxyphenyl)pyrimidin-4(3H)-one] |
| < 0.01 µM | CN[C@@H]1CCN(C(=O)N2CC[C@@H](Cn3cnc(-c4ccccc4OC)cc3=O)C3(CCCC3)C2)[C@H](c2ccc(F)cc2)C1 [Example 104, 3-(((R)-7-((2S,4R)-2-(4-Fluorophenyl)-4-(methylamino)piperidine-1-carbonyl)-7-azaspiro[4.5]decan-10-yl)methyl)-6-(2-methoxyphenyl)pyrimidin-4(3H)-one] |
